# From ChEMBL document CHEMBL3621163, “Phenothiazine-based CaaX competitive inhibitors of human farnesyltransferase bearing a cysteine, methionine, serine or valine moiety as a new family of antitumoral compounds” (Bioorg Med Chem Lett, 2015)
# Key:
# Format in all cases: protein-complex assay
# [1] = target: T1, Protein farnesyltransferase (Homo sapiens, UniProt P49354+P49356); test: Inhibition of recombinant human FTase using FPP/dansyl-GCVLS as substrate at 100 uM measured for 15 mins by fluorimetric analysis relative to control
# [2] = target: T1, Protein farnesyltransferase; test: Inhibition of human FTase
# [3] = target: T1, Protein farnesyltransferase; test: Inhibition of recombinant human FTase using FPP/dansyl-GCVLS as substrate measured for 15 mins by fluorimetric analysis
inhibition [1],IC50 [2],IC50 [3],SMILES
52%,–,–,COC(=O)[C@@H](NC(=O)CCN1c2ccccc2Sc2ccccc21)C(C)C
10%,–,–,CCOC(=O)[C@H](CS)NC(=O)CCN1c2ccccc2Sc2ccccc21
0%,–,–,COC(=O)[C@H](CCSC)NC(=O)CCN1c2ccccc2Sc2ccc(Cl)cc21
–,35 µM,–,O=C(CCn1c2ccccc2c2ccccc21)OCCS
63%,–,–,COC(=O)[C@H](CO)NC(=O)CCN1c2ccccc2Sc2ccccc21
96%,–,18.9 µM,CSCC[C@H](NC(=O)CCN1c2ccccc2Sc2ccc(Cl)cc21)C(=O)O
22%,–,–,CC(C)[C@H](NC(=O)CCn1c2ccccc2c2ccccc21)C(=O)O
73%,–,40.2 µM,CSCC[C@H](NC(=O)CCn1c2ccccc2c2ccccc21)C(=O)O
15%,–,–,CCOC(=O)[C@H](CS)NC(=O)CCn1c2ccccc2c2ccccc21
23%,–,–,COC(=O)[C@H](CO)NC(=O)CCn1c2ccccc2c2ccccc21
76%,–,44.7 µM,CC(C)[C@H](NC(=O)CCN1c2ccccc2Sc2ccccc21)C(=O)O
94%,–,12 µM,O=C(CCN1c2ccccc2Sc2ccccc21)N[C@@H](CO)C(=O)O
67%,–,65.4 µM,O=C(CCn1c2ccccc2c2ccccc21)N[C@@H](CS)C(=O)O
5%,–,–,COC(=O)[C@H](CCSC)NC(=O)CCN1c2ccccc2Sc2ccccc21
92%,–,11.7 µM,CSCC[C@H](NC(=O)CCN1c2ccccc2Sc2ccccc21)C(=O)O
0%,–,–,CCOC(=O)[C@H](CSSC[C@H](NC(=O)CCN1c2ccccc2Sc2ccccc21)C(=O)OCC)NC(=O)CCN1c2ccccc2Sc2ccccc21
51%,–,–,COC(=O)[C@H](CCSC)NC(=O)CCn1c2ccccc2c2ccccc21
33%,–,–,O=C(CCn1c2ccccc2c2ccccc21)N[C@@H](CO)C(=O)O
92%,–,4.7 µM,O=C(CCN1c2ccccc2Sc2ccccc21)N[C@@H](CS)C(=O)O
12%,–,–,COC(=O)[C@@H](NC(=O)CCn1c2ccccc2c2ccccc21)C(C)C
